# Source: patent US4334066A (priority 1981, dated 1982)
# Key:
# Format in all cases: cell-based
# [1] = system: Stem rot of eggplant (Sclerotinia Sclerotiorum); conditions: 48 h, test microorganism C, PDA medium, complete inhibition of mycelial growth, read 2 days later, read-out: Minimum Inhibitory Concentration
# Description: (§1) The test microorganisms employed are described below.
# C . . . Stem rot of eggplant
# (Sclerotinia Sclerotiorum)
# [2] = system: Rice blast disease (Pyricularia oxyzae); assay: microbe, parasite or virus in culture; conditions: 48 h, read-out: Minimum Inhibitory Concentration
# [3] = system: Early blight of tomato (Alternaria solaui); conditions: 48 h, test microorganism E, PDA medium, complete inhibition of mycelial growth, read 2 days later, read-out: Minimum Inhibitory Concentration
# Description: as §1
# E . . . Early blight of tomato
# [4] = system: Bacterial blight of rice (Xanthomonas oryzae); assay: microbe, parasite or virus in culture; conditions: 48 h, read-out: Minimum Inhibitory Concentration
# [5] = system: Gammy stem blight of melon (Mycosphaerella melonis); conditions: 48 h, test microorganism D, PDA medium, complete inhibition of mycelial growth, read 2 days later, read-out: Minimum Inhibitory Concentration
# Description: as §1
# D . . . Gammy stem blight of melon
SMILES,MIC [1] [µg/mL],MIC [2] [µg/mL],MIC [3] [µg/mL],MIC [4] [µg/mL],MIC [5] [µg/mL]
"CCC1OC(OC)C=C(CN2CCNCC2)C1=O (stereo not drawn) [Compound 1, 6-ethyl-2-methoxy-4-piperazinomethyl-5-oxo-5,6-dihydro-2H-pyran]",100,100,200,12.5,100
"CCOC1C=C(CN2CCOCC2)C(=O)C(C(C)C)O1 (stereo not drawn) [Compound 2, 6-isopropyl-2-ethoxy-4-morpholinomethyl-5-oxo-5,6-dihydro-2H-pyran]",100,100,200,–,100
